Laboratory results taken from patent publication US7060686B2, “Anti-inflammatory compounds derived from Pseudopterogorgia elisabethae” (The Regents of the University of California, priority 2000, dated 2006).

Columns and labels:
[1] = system: phorbol 12-myristate 13-acetate (PMA) induced ear edema; assay: Mouse ear anti-inflammatory assay; format: in vivo; settings: for inhibition in vivo at 25 µg/ear: Mus musculus, 200 min; for inhibition in vivo at 25 µg/ear / Edema (mg ± sem) / % Inhibition: topical, 200 minutes; for inhibition in vivo at 25 µg/ear / % Inhibition: 25 μg/ear with PMA, decrease in edema relative to PMA control group; for Relative Potency, Pseudopterosin A: potency estimate relative to Pseudopterosin A (historical ED50 15 μg/ear); for Relative Potency, Pseudopterosin E: potency estimate relative to Pseudopterosin E (historical ED50 40 μg/ear); for Edema (mg ± sem): 25 μg/ear test compound with 2 μg/ear PMA, left minus right ear bore weight, N=5
Experimental: A. Mouse Ear Anti-Inflammatory Assay Each compound was topically applied in acetone to the inside pinnae of the ear of a mouse in a solution containing the edema-causing irritant, phorbol 12-myristate 13-acetate (PMA). 2 μg per ear of PMA alone or 25 μg per ear of test compound in combination with PMA was applied to the left ear of each mouse and acetone (control) was applied to each right ear of each mouse. There were 5 mice per treatment group. After incubating 200 minutes, the mice were sacrificed, the ears were removed, and bores were taken and weighed. Edema (inflammation) was measured by subtracting the weight of the right ear from the weight of the left ear. Results were recorded as % decrease (inhibition) or % increase (potentiation) in edema relative to the PMA control group edema.

[2] = system: phorbol 12-myristate 13-acetate (PMA) induced ear edema; settings: Jacobs' historical standards; cited from earlier work

| Structure (SMILES) | inhibition in vivo at 25 µg/ear [1] [%] | Relative Potency, Pseudopterosin A [1] [%] | Relative Potency, Pseudopterosin E [1] [%] | Edema (mg ± sem) [1] [mg] | % Inhibition [1] | ED50 [2] [μg/ear] |
| --- | --- | --- | --- | --- | --- | --- |
| CC(=O)OC1C(C)OC(Oc2c(C)cc3c(c2O)[C@@H](C)CC[C@@H]3[C@@H](C)CCC=C(C)C)C(O)C1O (stereo partly shown) [Compound 6] | 74 | 148 | 410 | 1.8 ± 0.3 |  |  |
| CC(=O)OC1COC(Oc2c(C)c3c4c(c2O)[C@@H](C)CC[C@@H]4[C@@H](C)CC3C=C(C)C)C(O)C1O (stereo partly shown) [Compound 3] | 69 | 123 | 337 | 0.9 ± 0.2 |  |  |
| CC(=O)OC1C(Oc2c(C)cc3c(c2O)[C@@H](C)CC[C@@H]3[C@@H](C)CCC=C(C)C)OC(C)C(O)C1O (stereo partly shown) [Compound 4] | 88 |  |  | 0.8 ± 0.2 | highest percent inhibition |  |
| CC(C)=C[C@H]1C[C@H](C)[C@H]2CC[C@H](C)c3c(O[C@@H]4OC[C@@H](O)[C@H](O)[C@H]4O)c(O)c(C)c1c32 [Pseudopterosin A] |  |  |  |  |  | 15 |
| CC(=O)OC1C(O)COC(Oc2c(C)c3c4c(c2O)[C@@H](C)CC[C@@H]4[C@@H](C)CC3C=C(C)C)C1O (stereo partly shown) [Compound 2] | 88 |  |  | 0.8 ± 0.2 | highest percent inhibition |  |
| CC(=O)OC1C(O)C(C)OC(Oc2c(C)cc3c(c2O)[C@@H](C)CC[C@@H]3[C@@H](C)CCC=C(C)C)C1O (stereo partly shown) [Compound 5] | 65 | 103 | 288 | 2.4 ± 0.6 |  |  |
| CC(=O)OC1C(Oc2c(C)c3c4c(c2O)[C@@H](C)CC[C@@H]4[C@@H](C)CC3C=C(C)C)OCC(O)C1O (stereo partly shown) [Compound 1] | 68 | 118 | 324 | 2.1 ± 0.5 |  |  |
| CC(C)=CCC[C@H](C)[C@H]1CC[C@H](C)C2=C1C(=O)C(C)=C(O)C2=O [Compound 7, elisabethadione] | 83 |  |  | 1.2 ± 0.1 |  |  |
| CC(C)=C[C@H]1C[C@H](C)[C@H]2CC[C@H](C)C3=C2C1(O)C(C)=C(O)C3=O (stereo partly shown) [Compound 8, elisabethadiol] | 9 |  |  | 6.2 ± 0.6 |  |  |
| CC(C)=C[C@H]1C[C@H](C)[C@H]2CC[C@H](C)c3c(O)c(O[C@@H]4O[C@@H](C)[C@@H](O)[C@@H](O)[C@@H]4O)c(C)c1c32 [Pseudopterosin E] |  |  |  |  |  | 40 |
